This is an account of results in patent publication US20130281524A1, “NOVEL TREATMENTS” (priority 2008, published 2013).

“Also recorded” adds a separate entry of the source.

One assay concerns trigeminal nerve. To be noted: Parsons et al., Brit. J. Pharmacol. 2001, cited from earlier work.
The next assay deals with connexin 26. Description: Immunohistochemistry of connexin 26 in trigeminal ganglia after TNF-α and capsaicin. Format: in vivo, Sprague Dawley rats. To be noted: 10 mg/kg i.p. pre-treatment. The method, then: (§1) Sprague Dawley rats injected with True Blue were used to localize neuronal cell bodies in the ganglion and study neuron-glia signalling via gap junctions in the trigeminal ganglion. Dye coupling studies were conducted under basal conditions and in response to tumour necrosis factor-α injection into the whisker pad and/or capsaicin injection into the eyebrow. Changes in connexin 26 and active p38 levels were determined by immunohistochemistry.
(§2) In addition, the effect of tonabersat prior to chemical stimulation on gap junction activity and expression of connexins and active p38 was investigated.
Ganglia were collected from untreated animals or animals injected with TNF-α, capsaicin, or TNF-α and capsaicin as described above. Sections were fixed using 4% paraformaldehyde for 60 minutes, permeabilized with 0.3% Triton-X100 for 60 minutes, and then incubated in 5% donkey serum for another 60 minutes. Sections were then incubated overnight at 4° C. with primary antibodies against connexin 26 (1:500 in PBS; Chemicon, Temecula, Calif.) or active p38 MAP kinase (1:200; Cell Signaling Technology, Danvers, Mass.). […]

The next assay relates to active p38 MAP kinase. Description: Immunohistochemistry of active p38 in trigeminal ganglia after TNF-α and capsaicin. The class given is in vivo, Sprague Dawley rats. The conditions noted are these: 10 mg/kg i.p. pre-treatment, neurons and satellite glial cells in V1 and V2 regions, compared to TNF-α and capsaicin treated animals. As for the experimental part: as §1, §2
Ganglia were collected from untreated animals or animals injected with TNF-α, capsaicin, or TNF-α and capsaicin as described above. Sections were fixed using 4% paraformaldehyde for 60 minutes, permeabilized with 0.3% Triton-X100 for 60 minutes, and then incubated in 5% donkey serum for another 60 minutes. Sections were then incubated overnight at 4° C. with primary antibodies against connexin 26 (1:500 in PBS; Chemicon, Temecula, Calif.) or active p38 MAP kinase (1:200; Cell Signaling Technology, Danvers, Mass.). Immunoreactive proteins were visualized following incubation with Rhodamine Red Xconjugated donkey anti-rabbit antibodies (diluted 1:100 in PBS, Jackson Immuno-Research Laboratories, West Grove, Pa.) for 1 hour at room temperature and then mounted in Vectashield medium (H-1200) containing 4′,6 diamidino-2-phenylindole (DAPI) to allow for identification of neuronal and glial cell nuclei. As a control, some sections were incubated for 1 hour at room temperature with only the Rhodamine Red Xconjugated anti-rabbit antibodies. Images were collected as described above.
To determine whether TNF-α sensitization of capsaicin-responsive neurons could lead to increased expression of p38, animals were injected with TNF-α, capsaicin, or both agents and ganglion sections stained for the active phosphorylated form of p38. […]

Assay [1] has as its system gap junction communication between neurons and satellite glial cells in the trigeminal ganglion. Put plainly: Dye coupling studies (True Blue) of neuron-satellite glia gap junction signalling in trigeminal ganglion after TNF-α and capsaicin. Format: in vivo, Sprague Dawley rats. To be noted: 10 mg/kg i.p. pre-treatment prior to TNF-α then capsaicin; V1 and V2 regions of ganglia. As for the experimental part: as §1, §2
Young male rats (200-225 g) were brought to the lab and kept in a quiet environment for about 30 minutes. Rats were anesthetized by an intraperitoneal (i.p.) injection of 0.3 ml of ketamine and xylazine solution (800 mg and 60 mg in 10 ml, respectively; Sigma, St. Louis, Mo.). […] Initially, rats were injected with a fluorescent dye, True Blue (25 μl, 2 mg/ml in dimethyl sulfoxide, DMSO; Invitrogen, Eugene, Oreg.) in the whisker pad or eyebrow regions to retrogradely label neuronal cell bodies within the V1 and V2 regions of the trigeminal ganglion. Bilateral injections were performed using a 50 μL Hamilton syringe (Hamilton Company, Reno, Nev.) and a 261/2 G needle (Becton Dickinson, FranklinLakes, N.J.). […]

Turning to `CC(=O)c1ccc2c(c1)[C@H](NC(=O)c1ccc(F)c(Cl)c1)[C@H](O)C(C)(C)O2` [tonabersat, cis-6-acetyl-4-(S)-(3-chloro-4-fluorobenzoylamino)-3,4-dihydro-2,2-dimethyl-2H-1-benzopyran-3-(S)-ol], the trigeminal nerve activation entry in the assay on trigeminal nerve (10 mg/kg, animal models) was “block”. The trigeminal parasympathetic reflexes result in the assay on trigeminal nerve is on record as “blockade”. The “level of connexin 26 staining” value in the assay with connexin 26 (V1 and V2 regions, compared to animals treated with TNF-α and capsaicin) was “greatly decreased; also recorded: decrease”. In addition, the “number of plaques observed between neurons and satellite glial cells” value in the assay with connexin 26 (ganglia from TNF-α and capsaicin treated animals, higher magnification) is given as “much lower”. In the assay with active p38 MAP kinase, the “active p38 levels” value is “greatly decreased; also recorded: blocked” and the “amount of nuclear staining of active p38” value is “greatly decreased”. The “active p38 levels” value in the assay on active p38 MAP kinase (listed as Tonabersat) is recorded as “lowered p38 levels to those observed in ganglia obtained from untreated control animals”. Also, the “stimulated dye movement between neurons and satellite glial cells (gap junction communication)” value in assay [1] is reported as “greatly reduced; also recorded: decrease”.
